The values below come from PubChem BioAssay (NCI).

Holding throughout (experiment): inhibition of tumour cell growth, NCI panel, 48 h
Experiment [1] has as its system HCC-2998 colon.
The subject of experiment [2] is NCI-H460 lung.
The subject of experiment [3] is HL-60(TB) leukemia.
The subject of experiment [4] is NCI-H522 lung.
Experiment [5] relates to MDA-MB-435.
The subject of experiment [6] is COLO 205 colon.
Experiment [7] relates to SK-MEL-5 melanoma.
Experiment [8] has as its system T-47D breast.
Experiment [9] concerns NCI-H226 lung.
Experiment [10] concerns K-562 leukemia.

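Interpolation was linear, between the two tested concentrations surrounding the appropriate level; five concentrations were tested over 48 hours in 96-well plates. GI50 = concentration required for 50% inhibition of growth. TGI is the concentration that stops growth completely.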

`O=C1/C(=C\c2ccco2)Oc2ccccc21`: the TGI in experiment [1], in experiment [2], in experiment [3], in experiment [4], in experiment [5] and in [6] was more than 100 µM throughout. The TGI in [7], in experiment [8], in [9] and in experiment [10] was more than 100 µM throughout.

In the case of `Clc1ccc(/C=C/c2ccc3ccccc3n2)cc1`, the GI50 in experiment [1] was 0.968 µM; in [2] it was 1.2 µM; in [3], 0.268 µM; in experiment [4], 0.255 µM; in experiment [5], 0.226 µM; in experiment [6], 1.46 µM. Further, the GI50 was 0.551 µM in experiment [7], 5.16 µM in experiment [8], 25 µM in [9] and 0.439 µM in experiment [10]. Also, the TGI was found to be 8.41 µM in experiment [1]; 15.7 µM in experiment [2]; 0.828 µM in experiment [3]; 0.763 µM in experiment [4]; 0.531 µM in experiment [5]; 6.73 µM in experiment [6]. For the same compound, the TGI in experiment [7], in [8], in experiment [9] and in [10] was more than 100 µM in each case.

As to `COc1ccc(C(=O)c2sc3nc(-c4ccccc4OC)ccc3c2N)cc1OC`, the GI50 in experiment [1] is 9.71 µM; in experiment [2] it was 9.61 µM; in experiment [3] it was 4.07 µM; in experiment [4] it was 2.5 µM; in [5] it was 4.25 µM; in experiment [6], 8.9 µM. Also, the GI50 in experiment [7] was 2.05 µM; in [8], 2.95 µM; in experiment [9], 5.13 µM; in experiment [10], 5.1 µM. In addition, the TGI in [1] is more than 100 µM; in [2] it was more than 100 µM; in [3], more than 100 µM; in [4] it was 8.89 µM; in [5], more than 100 µM; in experiment [6] it was more than 100 µM. Moreover, the TGI in [7] was 5.68 µM; in experiment [8], more than 100 µM; in experiment [9] it was more than 100 µM; in experiment [10], more than 100 µM.

Consider `CN(C)N1C(=O)SCC(c2ccccc2)(c2ccccc2)C1=O`, for which the TGI in [1], in [2], in [3], in experiment [4], in [5] and in experiment [6] was more than 100 µM each time. Also, the TGI in [7], in experiment [8], in experiment [9] and in [10] was more than 100 µM each time.

Take `COc1ccc(-c2nc(-c3nc4cc(Cl)c(F)cc4[nH]3)c3ccccn23)cc1`: the GI50 is 4.03 µM in [1]; 5.43 µM in experiment [2]; 4.97 µM in experiment [3]; 4.39 µM in [4]; 3.8 µM in [5]; 7.1 µM in experiment [6]. The GI50 in experiment [7] was 2.22 µM; in experiment [8], 3.54 µM; in [9] it was 14.5 µM; in experiment [10], 4.84 µM. Besides, the TGI in experiment [1], in experiment [2], in [3], in experiment [4], in experiment [5] and in experiment [6] was more than 100 µM throughout. The TGI in experiment [7] was 6.79 µM; in [8], 33.1 µM; in [9], more than 100 µM; in [10], more than 100 µM.

On to `CCOC(=O)c1ccc(NC(=O)NC2=NCCS2)cc1`, for which the GI50 in [1] is 3.91 µM; in experiment [2], 3.2 µM; in [3], 0.503 µM; in experiment [4], 0.352 µM; in experiment [5] it was 3.42 µM; in experiment [6], 40.8 µM. Further, the GI50 in experiment [7] is 2.7 µM; in [8] it was 4.13 µM; in experiment [9], 3.14 µM; in experiment [10], 10.5 µM. Also, the TGI is more than 76.7 µM in experiment [1]; more than 100 µM in experiment [2]; more than 100 µM in [3]; 19.4 µM in [5]; more than 100 µM in experiment [6]; more than 100 µM in experiment [7]. Moreover, the TGI in [8], in [9] and in [10] was more than 100 µM in each case.

As for `CC(C)(C)[Si](C)(C)OC1[C@@H](CNC(N)=O)O[C@@H](n2cnc3c(NC(=O)Nc4ccccc4)ncnc32)[C@H]1O[Si](C)(C)C(C)(C)C` (some centres undefined), the GI50 in experiment [1] was 1.6 µM; in experiment [2], 1.02 µM; in experiment [3], 1.01 µM; in [4] it was 2.36 µM; in [5] it was 2.21 µM; in [6], 1.23 µM. The GI50 in experiment [7] was 6.82 µM; in experiment [8], 7.56 µM; in experiment [9], 5.39 µM; in experiment [10], 1.06 µM. Further, the TGI amounted to 6.18 µM in experiment [1]; 1.98 µM in [2]; 2.12 µM in experiment [3]; 8.25 µM in experiment [4]; 8.51 µM in experiment [5]; 2.7 µM in [6]. Moreover, the TGI was determined as 13.5 µM in experiment [7], 14.2 µM in experiment [8], 11.7 µM in experiment [9] and 2.13 µM in experiment [10].

Turning to `Cn1c(=O)n(C)c2cc(CNCCNc3ccnc4cc(Cl)ccc34)ccc21`, the GI50 in experiment [1] is 20.2 µM; in experiment [2] it was 20.9 µM; in [3], 25.1 µM; in [4] it was 30.2 µM; in [5], 15.8 µM; in [6] it was 17.2 µM. Also, the GI50 is 16.5 µM in experiment [7], 28.3 µM in experiment [8], 72 µM in [9] and 6.99 µM in [10]. The TGI was 52.9 µM in [1]; 60.8 µM in [2]; 91.2 µM in experiment [3]; 93.3 µM in experiment [4]; 31.9 µM in [5]; 35.8 µM in experiment [6]. The TGI in [7] was 30.3 µM; in experiment [8] it was 86.5 µM; in experiment [9], more than 100 µM; in experiment [10] it was 39.4 µM.
